Measured values reported in publication PMC7948455, “Novel drug discovery platform for spinocerebellar ataxia, using fluorescence technology targeting β-III-spectrin” (The Journal of Biological Chemistry, 2020).
“Also recorded” adds a separate entry of the source. Where two headings read alike, the source gives them in different places.

Columns and labels:
[1] = biological target: T1, binding of the mutant β-III-spectrin L253P ABD to F-actin (Homo sapiens, UniProt O15020, L253P); experiment: Primary live-cell FRET assay (GFP-ABD-L253P + Lifeact-mCherry) in HEK293-6E cells; type: cell-based; settings: for Effect of Hit compound on primary FRET: LOPAC Hits (10 μM screen, 4SD threshold, 120 min) and dose response; for Shift of FRET: 10 μM
T1 construct: the β-III-spectrin (human) ABD residues 1 to 284; expressed in transfected cells; host or cells: HEK293-6E (pTT5 vector, transient transfection)
T1 sequence (O15020 1-284 L253P): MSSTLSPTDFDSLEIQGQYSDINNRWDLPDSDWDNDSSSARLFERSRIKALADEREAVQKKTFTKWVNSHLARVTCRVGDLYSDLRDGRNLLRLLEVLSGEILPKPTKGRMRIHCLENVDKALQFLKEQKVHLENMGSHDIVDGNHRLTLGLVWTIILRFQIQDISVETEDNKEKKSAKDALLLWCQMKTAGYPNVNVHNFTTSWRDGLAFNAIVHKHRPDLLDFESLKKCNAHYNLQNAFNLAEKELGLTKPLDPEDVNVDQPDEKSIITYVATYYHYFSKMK
Experimental: To develop a biosensor that monitors the binding of mutant L253P β-III-spectrin to actin filaments in live cells, a FRET approach was tested. A FRET donor construct consisting of green fluorescent protein fused to the N terminus of the mutant ABD (GFP-ABD-L253P) was coexpressed in HEK293-EBNA1-6E (HEK293-6E) cells with a FRET acceptor construct consisting of the actin-binding peptide, Lifeact, fused to the N terminus of red fluorescent protein, mCherry (Lifeact-mCherry). Lifeact is a 17 amino acid peptide derived from the yeast actin-binding protein, ABP140 ([15]). […] The cryo-EM structures of ABD L253P and Lifeact on actin indicate that the binding sites overlap on actin units. With ABD L253P and Lifeact bound on neighboring actin units, we predicted an average distance of ∼80 Å between GFP and mCherry (Fig. 1). With a known Förster distance R0 of 52.4 Å ([17]), this corresponds to FRET value of 0.07, a sufficient signal for a biosensor platform. To design a system most compatible for large production and eventual screening of 50,000+ compound libraries, we used HEK293-6E cells, a suspension cell line that yields greater levels (>threefold) of recombinant protein expression ([18], [19]).
With a constant amount of GFP-ABD-L253P expressed, increased Lifeact-mCherry expression increases FRET with an exponential plateau to 0.12 (Fig. 2A). To measure the nonspecific component of our FRET readout, we concurrently tested expression of mCherry in place of Lifeact-mCherry. For comparison, the Lifeact-mCherry and mCherry fluorescence intensity values (normalized to 1:1 GFP-ABD:Lifeact-mCherry sample) are plotted on the X-axis for samples transfected with different donor-to-acceptor DNA ratios. […] With the trade-off between high FRET and minimal nonspecific FRET, the donor:acceptor ratio 1:2 was chosen for the experiments that followed (Fig. 2A). […] Of note, we also tested the biosensor using WT-ABD, which yielded substantially lower FRET (Fig. S1), consistent with the 1000-fold decrease in affinity of WT-ABD for actin ([10]). We proceeded to test the compatibility of the GFP-ABD-L253P and Lifeact-mCherry assay for primary compound screening and the GFP-ABD-L253P and mCherry assay as a potential high-throughput counter screen.
To test the performance of the assay in HTS, the 1280 LOPAC compounds, together with 256 DMSO controls, were dispensed in 5 nl volumes into individual wells of 1536-well microplates and stored at −20 °C until use. To test the reproducibility of replicate screens on the same day, a single batch of HEK293 cells was transfected with GFP-ABD-L253P and Lifeact-mCherry. In addition, control cells were transfected with only GFP-ABD-L253P, to determine compound effect on donor-only lifetime (τD). To test reproducibility of the screens across different days, identical transfections were performed on another batch of HEK293-6E cells on a second day. Following plate thaw, 5 μl of assay cells were loaded in each well via a multidrop liquid dispenser, and a time course of compound effects (at 20, 120, and 180 min post load) on fluorescence lifetime was acquired using a fluorescence lifetime plate reader (FLT-PR). This technology has been advanced to high-density 1536-well plates in recent years for successful HTS using a range of protein biosensors including sarcoplasmic reticulum Ca-ATPase ([24], [25], [26], [27]), ryanodine receptor ([23], [28]), actin ([20]), tumor necrosis factor receptor 1 ([29], [30]), and tau ([31]).
At 2 × 10^6 cells/ml, HEK293-6E cells were transfected with GFP-ABD-L253P or GFP-ABD-WT (2.4 μg), Lifeact-mCherry (2.4–16.8 μg), mCherry (1.2–16.8 μg), and/or pTT5 (0.8–17.6 μg), as indicated, using the 293fectin protocol (Thermo Fisher Scientific) with 20 μg total DNA. Cells were transfected with either GFP-ABD-L253P or –WT, but coexpression of the WT and mutant isoform was not explored in this study. The cells were harvested 24 h later by centrifugation at 100g for 5 min and then washed twice with PBS. […]

[2] = test system: GFP-ABD-L253P to mCherry nonspecific FRET; experiment: Counter-screen FRET assay (GFP-ABD-L253P + mCherry, nonspecific FRET) in HEK293-6E cells; type: cell-based
From the text: With a constant amount of GFP-ABD-L253P expressed, increased Lifeact-mCherry expression increases FRET with an exponential plateau to 0.12 (Fig. 2A). To measure the nonspecific component of our FRET readout, we concurrently tested expression of mCherry in place of Lifeact-mCherry. For comparison, the Lifeact-mCherry and mCherry fluorescence intensity values (normalized to 1:1 GFP-ABD:Lifeact-mCherry sample) are plotted on the X-axis for samples transfected with different donor-to-acceptor DNA ratios. […] With the trade-off between high FRET and minimal nonspecific FRET, the donor:acceptor ratio 1:2 was chosen for the experiments that followed (Fig. 2A). […]
At 2 × 10^6 cells/ml, HEK293-6E cells were transfected with GFP-ABD-L253P or GFP-ABD-WT (2.4 μg), Lifeact-mCherry (2.4–16.8 μg), mCherry (1.2–16.8 μg), and/or pTT5 (0.8–17.6 μg), as indicated, using the 293fectin protocol (Thermo Fisher Scientific) with 20 μg total DNA. […] Cell viability and concentration were determined using trypan blue assay and a Countess cell counter (Invitrogen). […]
Time-resolved fluorescence waveforms for each well were fitted based on a one-exponential decay function using least-squares minimization global-analysis software, as detailed previously ([32]). […]

SMILES: O=C(O)c1cc([N+](=O)[O-])ccc1NCCCc1ccccc1 [NPPB]
- Effect of Hit compound on primary FRET [1]: decrease FRET

SMILES: CC(C)(C)c1ccc(/C=C/C(=O)Nc2ccc3c(c2)OCCO3)cc1 [AMG 9810]
- Shift of FRET [1]: 2 to 14%
- Effect of Hit compound on primary FRET [1]: decrease FRET

SMILES: CCCCCCCC/C=C\CCCCCCCC(=O)NCc1ccc(O)c(OC)c1 [olvanil]
- Effect of Hit compound on counter-screen FRET ([2]; dose response, GFP-ABD-L253P:mCherry 1:2 and 1:4): no significant effect
- Shift of FRET [1]: 2 to 14%
- Effect of Hit compound on primary FRET [1]: decrease FRET; also recorded: subtly reduced

SMILES: CO[C@H]1C[C@H](CC[C@H](C)[C@H](O)[C@H](C)[C@H]2OC(=O)/C=C/C(C)=C/C[C@H](O)C[C@@H]3C=CC[C@@H](C[C@H](OC)[C@@H](C)[C@@H](O)C[C@@H](O)[C@H](C)[C@@H]([C@@H](C)[C@@H](O)[C@@H](C)CC[C@H]4C[C@H](OC)C[C@H](C)O4)OC(=O)/C=C/C(C)=C/C[C@H](O)C[C@@H]4C=CC[C@@H](C[C@H](OC)[C@@H](C)[C@@H](O)C[C@@H](O)[C@@H]2C)O4)O3)O[C@@H](C)C1 [swinholide A]
- Effect on counter-screen FRET readout ([2]; swinholide A 3 μM, tegaserod 50 μM, relative to DMSO): did not significantly alter
- Reduction of Total FRET in primary FRET assay ([1]; 1 μM swinholide A, relative to DMSO): > 50%
- EC50 ([1]; Plate A, 1536-well, read-out: EC50 of specific FRET dose response): 241 nM
- EC50 ([1]; Plate B, 1536-well, read-out: EC50 of specific FRET dose response): 284 nM
- EC50 ([1]; Plate C, 1536-well, read-out: EC50 of specific FRET dose response): 267 nM
- Reduction in FRET (Fig. 2B) ([1]; swinholide A (3 μM in Fig. 2B legend), relative to DMSO, n = 3): 56 ± 7%
- EC50 ([1]; triplicate 12-point concentration response, 1536-well plates, read-out: EC50 of FRET reduction, average): 264 nM

SMILES: CCOc1nc2cccc(C(=O)O)c2n1Cc1ccc(-c2ccccc2-c2nnn[nH]2)cc1 [candesartan]
- Shift of FRET [1]: 2 to 14%
- Effect of Hit compound on primary FRET [1]: decrease FRET
